Laboratory results published in publication PMC8509669 (2021).

Tests used:
Experiment in all cases: ThT fluorescence light-up
[1] = tested on: FenA2-ThT (DNA, aptamer) ACGACGGGCCGAGTAGTCTCCACGATTGATCGGAAGTCGT; settings: 10 mM NaCl; 10 mM Tris-HCl pH 7.0, 30 °C; 1 µM aptamer; peak signal at 1:8 sensor:ThT
[2] = tested on: FenA1-ThT (DNA, aptamer) ACGACCACAGGGAGTAAGAGGCCGCCAGATTGTAAGTCGT; settings: 10 mM NaCl; 10 mM Tris-HCl pH 7.0, 30 °C; 1 µM aptamer
[3] = tested on: FenA3-ThT (DNA, aptamer) CCGCAGGTCAGGTTGAGAGGATCCCGATTGCGG; settings: 10 mM NaCl; 10 mM Tris-HCl pH 7.0, 30 °C; 1 µM aptamer
[4] = tested on: FenA4-ThT (DNA, aptamer) ACGACCGCAGGTTGTCTGAGCCGACAGGTTGCATGTCGT; settings: 10 mM NaCl; 10 mM Tris-HCl pH 7.0, 30 °C; 1 µM aptamer
[5] = tested on: FenA5-ThT (DNA, aptamer) ACGACCGCAGGGCGTGAGAGCCGGAACGGTGCATCGTCGT; settings: 10 mM NaCl; 10 mM Tris-HCl pH 7.0, 30 °C; 1 µM aptamer

## Cc1ccc2c(c1)sc(-c1ccc(N(C)C)cc1)[n+]2C
[1]
  binding: yes
[2]
  binding: weak
[3]
  binding: weak
[4]
  binding: weak
[5]
  binding: weak
